Results taken from PubChem BioAssay AID2060360 (Molecular Pharmacology Branch, DTP, NCI, 2025).
Where “and” joins values, the source holds several entries; their conditions need not be identical. Equal entries are not always repeated. One block for each compound: values may come before it.

Test system: 282377-053-R-J1-PDC tumor spheroids, viability
Assay: Anticancer human tumor 282377-053-R-J1-PDC patient-derived colon adenocarcinoma cell line growth inhibition [TAK]
Conditions: spheroids with HUVEC and MSC; for viability, T/C: stronger effect = lower value
Procedure, shortened: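 Drug combinations, each paired with TAK-243 or ipatasertib, were tested on multi-cell spheroids of 60% malignant cells, 25% HUVEC and 15% hMSC. Top concentrations were at or near the clinical Cmax (10 microM if undetermined), decreasing by half-log; viability is given as % test/control.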
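Note: spheroids exposed to drugs for seven days before readout.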

SMILES: CC(C)(C)c1nc(-c2cccc(NS(=O)(=O)c3c(F)cccc3F)c2F)c(-c2ccnc(N)n2)s1 + CC(C)NCC(C(=O)N1CCN(c2ncnc3c2C(C)CC3O)CC1)c1ccc(Cl)cc1
IC50 (curve of first compound, second compound 0.3 µM): > 10 µM | IC50 (curve of first compound, second compound 0.949 µM): > 10 µM | IC50 (curve of first compound, second compound 3 µM): > 10 µM | IC50 (curve of first compound, second compound 9.49 µM): > 10 µM | IC50 (curve of first compound, second compound 30 µM): 0.437 µM | viability, T/C (second compound 0.3 µM, first compound 0.0316 µM): 83.5% | viability, T/C (second compound 0.3 µM, first compound 0.1 µM): 81% | viability, T/C (second compound 0.3 µM, first compound 0.316 µM): 79.3% | viability, T/C (second compound 0.3 µM, first compound 1 µM): 72% | viability, T/C (second compound 0.3 µM, first compound 3.16 µM): 71.3% | viability, T/C (second compound 0.3 µM, first compound 10 µM): 63.7% | viability, T/C (second compound 0.949 µM, first compound 0.0316 µM): 78.4% | viability, T/C (second compound 0.949 µM, first compound 0.1 µM): 79.7% | viability, T/C (second compound 0.949 µM, first compound 0.316 µM): 71.9% | viability, T/C (second compound 0.949 µM, first compound 1 µM): 66.5% | viability, T/C (second compound 0.949 µM, first compound 3.16 µM): 59.6% | viability, T/C (second compound 0.949 µM, first compound 10 µM): 57.5% | viability, T/C (second compound 3 µM, first compound 0.0316 µM): 77.7% | viability, T/C (second compound 3 µM, first compound 0.1 µM): 74.8% | viability, T/C (second compound 3 µM, first compound 0.316 µM): 69.9% | viability, T/C (second compound 3 µM, first compound 1 µM): 58.8% | viability, T/C (second compound 3 µM, first compound 3.16 µM): 54.4% | viability, T/C (second compound 3 µM, first compound 10 µM): 53.6% | viability, T/C (second compound 9.49 µM, first compound 0.0316 µM): 71.6% | viability, T/C (second compound 9.49 µM, first compound 0.1 µM): 72.4% | viability, T/C (second compound 9.49 µM, first compound 0.316 µM): 65.5% | viability, T/C (second compound 9.49 µM, first compound 1 µM): 51.2% | viability, T/C (second compound 9.49 µM, first compound 3.16 µM): 47.5% | viability, T/C (second compound 9.49 µM, first compound 10 µM): 52.8% | viability, T/C (second compound 30 µM, first compound 0.0316 µM): 60% | viability, T/C (second compound 30 µM, first compound 0.1 µM): 58.4% | viability, T/C (second compound 30 µM, first compound 0.316 µM): 54.6% | viability, T/C (second compound 30 µM, first compound 1 µM): 36.1% | viability, T/C (second compound 30 µM, first compound 3.16 µM): 35.7% | viability, T/C (second compound 30 µM, first compound 10 µM): 42.6%

IC50 (curve of compound): > 10 µM
SMILES: Cc1nc(NC(=O)N2CCCC2C(N)=O)sc1-c1ccnc(C(C)(C)C(F)(F)F)c1 (configuration not stated)
viability, T/C (compound 0.0316 µM): 97.1% and 95.8% | viability, T/C (compound 0.1 µM): 96.6% and 101% | viability, T/C (compound 0.316 µM): 95.6% and 96.5% | viability, T/C (compound 1 µM): 93.9% and 93.5% | viability, T/C (compound 3.16 µM): 89.7% and 88.6% | viability, T/C (compound 10 µM): 85.2% and 79.1%
